Test results: patent US20130158035A1, “[…] COMPOUNDS” (Brigham Young University, priority 2010, published 2013)

System: MDCK cells
Experiment: HGF-induced epithelial-mesenchymal transition / migration of MDCK cells on transwell filters (crystal violet densitometry)
Format: cell-based
Settings: then HGF, percentage like untreated controls (unstimulated cells = maximal effect, HGF only = nil); for inhibition at 10 µM: Canis lupus familiaris, MDCK, 24 h; for Assay Value: 10 μM compound, 24 hours
Description: MDCK cells were seeded at confluency into the wells of a transwell filter in DMEM with 10% fetal bovine serum. Cells were cultured for 24 hours. Test compounds, dissolved in DMSO, were added to each test well to a 10 μM final concentration, and then hepatocyte growth factor (HGF) was then added. The MDCK cells were cultured for 24 hours. Concurrently, controls treated with and without HGF and with no test compounds were also prepared.
After post-HGF addition culturing, transwell filters were prepared by repeated washing using ice cold PBS. The cells were then fixed with paraformaldehyde (3.7%) on ice for 15 minutes to the filters. After fixation, the transwell filters were washed repeatedly with PBS followed by staining with crystal violet for 15 minutes. The transwell filters were washed again with distilled water.
The upper surface of the transwell filters were swabbed using a cotton-tipped probe. The filters were photographed using a gel documentation system. Densitometry measurements were made on the test samples and compared with control samples.

With `NC(=O)c1ccccc1/N=C/c1ccco1` [Compound A-11] the inhibition at 10 µM (Table 3, 10 μM compound) was 27.9%.

`Cc1c(C(=O)OCC2CCCO2)[nH]c2c1C(=O)CC(c1cccs1)C2` (stereo not shown) [Compound C-17] was tested, and the inhibition at 10 µM (Table 6, 10 μM compound) was 75.7%.

With `Cc1ccc(/C=N/c2ccccc2C(N)=O)o1` [Compound A-13] the inhibition at 10 µM (Table 3, 10 μM compound) was 11.2%.

`CCOc1ccc(C2CC(=O)Nc3cc4c(cc32)OCO4)cc1` (stereo not shown) [Compound 81] was tested, and the “Assay Value” (Table 2) was less than 5%.

With `CCOC(=O)c1[nH]c2c(c1C)C(=O)CC(c1ccc(OC)cc1)C2` (stereo not shown) [Compound C-13] the inhibition at 10 µM (Table 6, 10 μM compound) was less than 5%.

`COc1cccc(C2CC(=O)Nc3cc4c(cc32)OCCO4)c1OC` (stereo not shown) [Compound 23] was tested, and the “Assay Value” (Table 1) was 69.3%.

In the case of `NC(=O)c1ccccc1/N=C/c1cccc(Cl)c1Cl` [Compound A-1], the inhibition at 10 µM (Table 3, 10 μM compound) is reported as 94%.

In the case of `COc1cc(CNc2ccc(C)c(Cl)c2)cc(I)c1OC` [Compound A-20], the “Assay Value” (Table 3) is reported as 81.9%.

Compound `COc1cc(CNc2ccc(N3CCOCC3)c(C(=O)O)c2)cc(Br)c1OC` [Compound A-25] has an inhibition at 10 µM (Table 3, 10 μM compound) of less than 5%.

`COc1ccc(C(=O)Nc2cccc(C)n2)cc1[N+](=O)[O-]` [Compound B-11] was tested, and the inhibition at 10 µM (Table 4, 10 μM compound) was less than 5%.

In the case of `O=C1CC(c2cc3c(cc2Br)OCO3)c2cc3c(cc2N1)CCC3` (stereo not shown) [Compound 27], the “Assay Value” (Table 1) is reported as 87.2%.

`COc1cc(C2CC(=O)Nc3cc4c(cc32)OCCO4)cc(OC)c1OC` (stereo not shown) [Compound 3] was tested, and the “Assay Value” (Table 1) was 92.4%.

For `O=C1CC(c2cc(Br)ccc2F)c2cc3c(cc2N1)CCC3` (stereo not shown) [Compound 4], the “Assay Value” (Table 1) was 36.1%.

With `COc1cc(CNc2ccc(C)c(Cl)c2)cc(Cl)c1OC` [Compound A-21] the “Assay Value” (Table 3) was 57.5%.

In the case of `COc1cc2c(cc1OC)C(c1cc(Br)c(OC)c(OC)c1)CC(=O)N2` (stereo not shown) [Compound 52], the “Assay Value” (Table 2) is reported as less than 5%.

In the case of `CCOc1ccccc1C1CC(=O)Nc2cc(C)c(C)cc21` (stereo not shown) [Compound 33], the “Assay Value” (Table 2) is reported as less than 5%.

For `O=C1CC(c2ccccc2Br)c2cc3c(cc2N1)OCCO3` (stereo not shown) [Compound 36], the “Assay Value” (Table 2) was less than 5%.

Compound `Cc1c(C(=O)OCc2ccccc2)[nH]c2c1C(=O)CC(c1cccs1)C2` (stereo not shown) [Compound C-5] has an inhibition at 10 µM (Table 6, 10 μM compound) of 41.6%.

In the case of `O=C1CC(c2ccc(F)cc2)c2cc3c(cc2N1)OCCO3` (stereo not shown) [Compound 62], the “Assay Value” (Table 2) is reported as less than 5%.

For `CC(C)Oc1ccccc1C1CC(=O)Nc2cc3c(cc21)OCCO3` (stereo not shown) [Compound 50], the “Assay Value” (Table 2) was less than 5%.

With `O=C(Nc1cccc(C(=O)c2ccccc2)c1)c1ccc(-c2ccccc2)cc1` [Compound B-18] the inhibition at 10 µM (Table 5, 10 μM compound) was 93.8%.

`Cc1ccccc1C1CC(=O)Nc2cc3c(cc21)OCCO3` (stereo not shown) [Compound 45] was tested, and the “Assay Value” (Table 2) was less than 5%.

For `COc1cccc(/C=N/c2ccccc2C(N)=O)c1O` [Compound A-4], the inhibition at 10 µM (Table 3, 10 μM compound) was 20.9%.

For `COc1cc2c(cc1OC)C(c1cccc(Br)c1)CC(=O)N2` (stereo not shown) [Compound 59], the “Assay Value” (Table 2) was less than 5%.

For `O=C(Nc1cccc([N+](=O)[O-])c1)c1ccc(-c2ccccc2)cc1` [Compound B-15], the inhibition at 10 µM (Table 5, 10 μM compound) was 31.6%.

In the case of `CCOc1c(Br)cc(C2CC(=O)Nc3cc4c(cc32)OCCO4)cc1OC` (stereo not shown) [Compound 8], the “Assay Value” (Table 1) is reported as 48.8%.

In the case of `NC(=O)c1cccc(NC(=O)c2ccc(-c3ccccc3)cc2)c1` [Compound B-20], the inhibition at 10 µM (Table 5, 10 μM compound) is reported as 20.6%.

`Cc1c(C(=O)OC(C)C)[nH]c2c1C(=O)CC(c1cccs1)C2` (stereo not shown) [Compound C-7] was tested, and the inhibition at 10 µM (Table 6, 10 μM compound) was 35.9%.

With `O=C1CC(c2ccccc2)c2cc3c(cc2N1)OCO3` (stereo not shown) [Compound 86] the “Assay Value” (Table 2) was less than 5%.

In the case of `O=C1CC(c2ccccc2Cl)c2cc3c(cc2N1)OCCO3` (stereo not shown) [Compound 37], the “Assay Value” (Table 2) is reported as less than 5%.

`O=C(Nc1cccc(C(=O)N2CCOCC2)c1)c1ccc(-c2ccccc2)cc1` [Compound B-21] was tested, and the inhibition at 10 µM (Table 5, 10 μM compound) was 27.2%.

`O=C1CC(c2cccc3ccccc23)c2cc3c(cc2N1)OCCO3` (stereo not shown) [Compound 7] was tested, and the “Assay Value” (Table 1) was 17.1%.

For `COc1cc(CNc2ccc(C)c(Cl)c2)cc(Cl)c1OC` [Compound A-26], the “Assay Value” (Table 3) was less than 5%.

Compound `NC(=O)c1ccccc1/N=C/c1cccc2ccccc12` [Compound A-3] has an inhibition at 10 µM (Table 3, 10 μM compound) of 87.8%.

`NC(=O)c1ccccc1/N=C/c1cccc(O)c1` [Compound A-8] gave an inhibition at 10 µM (Table 3, 10 μM compound) of 19.7%.

`O=C1CC(c2cccc(F)c2F)c2cc3c(cc2N1)OCO3` (stereo not shown) [Compound 75] was tested, and the “Assay Value” (Table 2) was less than 5%.

In the case of `COc1cc2c(cc1OC)C(c1ccc(Cl)cc1)CC(=O)N2` (stereo not shown) [Compound 55], the “Assay Value” (Table 2) is reported as less than 5%.

In the case of `COc1cc(C(=O)Nc2ccc(N3CCCC3)cc2)cc(OC)c1OC` [Compound B-25], the inhibition at 10 µM (Table 5, 10 μM compound) is reported as 94.9%.

`Cc1nc(NC(=O)c2cccc([N+](=O)[O-])c2)ccc1Br` [Compound B-6] gave an inhibition at 10 µM (Table 4, 10 μM compound) of 88.6%.

`Cc1cc(NC(=O)c2cccc([N+](=O)[O-])c2)ccc1I` [Compound B-31] gave an inhibition at 10 µM (Table 5, 10 μM compound) of 53.1%.
